Measurements published in patent US5800838A, “Composition that inhibits or destroys at least one unicellular living organism containing fluorine F- and Lithium li+” (priority 1987, dated 1998).
Converted amounts (≈) assume the structure as drawn. Read-outs that look alike come from different tables or passages of the source.

Columns and labels:
[1] = test system: Haemophilus influenzae producing β-lactamase; experiment: Antibiotic activity of amoxicillin on hospital strains producing β-lactamase (Example 22); conditions: 4 ppm amoxicillin in the presence of 1 ppm clavulanic acid
[2] = test system: β-Haemolytic streptococcus; experiment: Antibiotic activity on hospital strains normally resistant to amoxicillin; assay type: cell-based; conditions: read-out: 100% inhibitory concentration
Klebsiella pneumoniae = experiment: as above; assay type: cell-based; conditions: read-out: 100% inhibitory concentration
[3] = test system: Escherichia coli (TEM plasmid); experiment: microbe, parasite or virus in culture; assay type: cell-based
staphylococcus aeurus = assay type: cell-based; conditions: Fli 4 ppm
Description: Strains Gram+ and Gram- (wild-type hospital) having a resistant phenotype vis a vis standard firstly and secondly used antibiotherapy were experimented on activated antibiotics.
250 experiments were conducted on the following strains: Streptococcus group B, C, D, F, G, Staphylococcus aureus, Staphylococcus epidermitis, Klebsiella pneumoniae, Klebsiella spirochete, Klebsiella oxytoca, Proteus mirabilis, Serratia marcescens, Escherichia coli, Citrobacter freundii, Enterobacter cloacae, Enterobacter calcoaceticus, Salmonella spirochete, Salmonella typhimurium, Pseudomonas aeruginosa, Haemophilus influenzae, Haemophilus sphrophilus, Acinetobacter calcoaeticus. […]

Staphylococcus aureus = experiment: Antibiotic activity on hospital strains normally resistant to amoxicillin; assay type: cell-based; conditions: read-out: 100% inhibitory concentration
Haemophilus influenzae = experiment: as above; assay type: cell-based
Pseudomonas aeruginosa = experiment: MIC of antibiotics by microdilution in liquid medium on plates (Example 18); assay type: cell-based; conditions: Pseudomonas aeruginosa, read-out: MIC (average MIC value)
Description: The unicellular living organism chosen for the trials is Pseudomonas aeruginosa (wild-type strain originating from hospital sources).
The same methodology as for Examples 11 and 12 was follows. Bacteriostatic analyses were performed with a number of antibiotics belonging to benzylpenicillins, and aminopenicillins, and first and second generation cephalosporins, namely:
The determination of the MIC was carried out by the microdilution method in liquid medium on plates. Aqueous solutions of each antibiotic are prepared in MUELLER HINION broth, to obtain dilutions in a geometric ratio of 2. The solvent is sterile double-distilled water.
The preparation of the bacterial inoculum is made with a culture of Pseudomonas aeruginosa, with agitation on a water bath at 37° C. for 4 to 6 hours, giving 10^6 bacteria/ml.
Three trials were performed per antibiotic and per bacterial inoculum. The trials were performed first with the antibiotics alone (trials a).sctn., and then with the addition of a dose of 1 mg/l of an aqueous solution of lithium fluoride (trials b).sctn. to the dilution of each one in every cup of every plate.

Klebsiella = experiment: Concentrations of cefotaxime inhibiting 50% of the strains; assay type: cell-based
Description: (§1) The activity of CEFOTAXIME was tested, alone and then in the presence of lithium fluoride, with respect to pathogenic strains other than Pseudomonas aeruginosa.
(§2) The following table expresses the concentrations (mg/l) of cefotaxime inhibiting 50% of the strains.

Escherichia coli = experiment: as above; assay type: cell-based
Description: as §1, §2

Proteus morganii = experiment: as above; assay type: cell-based; conditions: Morganella morganii; alone; F20; read-out: 50% inhibitory concentration
Description: as §1, §2

Enterobacter = experiment: as above; assay type: cell-based
Description: as §1, §2

Serratia = experiment: as above; assay type: cell-based
Description: as §1, §2

[4] = read-out: 100% inhibitory concentration, alone

## CC1(C)S[C@@H]2[C@H](NC(=O)[C@H](N)c3ccc(O)cc3)C(=O)N2[C@H]1C(=O)O [amoxicillin]
[1]
  time to inhibition of the strains to 100%: 24 h
[2]; alone
  MIC: 16 µg/mL (≈ 43.8 µM)
[2]; in the presence of LiF 8 ppm
  MIC: 4 µg/mL
Klebsiella pneumoniae; alone
  MIC: 64 µg/mL (≈ 175 µM)
Klebsiella pneumoniae; in the presence of LiF 8 ppm
  MIC: 2 µg/mL
[3]; [4]
  MIC: > 128 µg/mL
[3]; read-out: 100% inhibitory concentration, in the presence of LiF 8 ppm
  MIC: 32 µg/mL
Staphylococcus aeurus
  phenotype in presence of Fli: the resistant phenotype was not changed
Staphylococcus aureus; alone
  MIC: 32 µg/mL (≈ 87.6 µM)
Staphylococcus aureus; in the presence of LiF 8 ppm
  MIC: 8 µg/mL
Haemophilus influenzae; in the presence of LiF 8 ppm, read-out: 100% inhibitory concentration
  MIC: 32 µg/mL
Haemophilus influenzae; [4]
  MIC: > 128 µg/mL

## CO/N=C(\C(=O)N[C@@H]1C(=O)N2C(C(=O)O)=C(COC(C)=O)CS[C@H]12)c1csc(N)n1 [CEFOTAXIME, cefotaxime]
Pseudomonas aeruginosa; + LiF 1 mg/l, strain lic R βLac^+ OXA
  MIC: 16 µg/mL
Pseudomonas aeruginosa; + LiF 1 mg/l, strain lic R βLac^+ PSE
  MIC: 16 µg/mL
Pseudomonas aeruginosa; + LiF 1 mg/l, strain lic R βLac^+ TEM
  MIC: 32 µg/mL
Pseudomonas aeruginosa; + LiF 1 mg/l, strain lic R βLac^+ cephalosporinase
  MIC: 256 µg/mL
Pseudomonas aeruginosa; + LiF 1 mg/l, strain lic S βLac^- (first column)
  MIC: 8 µg/mL
Pseudomonas aeruginosa; + LiF 1 mg/l, strain lic S βLac^- (second column)
  MIC: 16 µg/mL
Pseudomonas aeruginosa; alone, strain lic R βLac^+ OXA
  MIC: 32 µg/mL
Pseudomonas aeruginosa; alone, strain lic R βLac^+ PSE
  MIC: 32 µg/mL
Pseudomonas aeruginosa; alone, strain lic R βLac^+ TEM
  MIC: 32 µg/mL
Pseudomonas aeruginosa; alone, strain lic R βLac^+ cephalosporinase
  MIC: 256 µg/mL
Pseudomonas aeruginosa; alone, strain lic S βLac^- (first column)
  MIC: 16 µg/mL
Pseudomonas aeruginosa; alone, strain lic S βLac^- (second column)
  MIC: 32 µg/mL
Klebsiella; alone, 1103, read-out: 50% inhibitory concentration
  IC50: 0.023 µg/mL (≈ 0.0505 µM)
Klebsiella; alone, U28, read-out: 50% inhibitory concentration
  IC50: 0.28 µg/mL (≈ 0.615 µM)
Klebsiella; in the presence of LiF at 1 mg/l, 1103, read-out: 50% inhibitory concentration
  IC50: 0.01 µg/mL
Klebsiella; in the presence of LiF at 1 mg/l, U28, read-out: 50% inhibitory concentration
  IC50: 0.16 µg/mL
Escherichia coli; alone, K12 J53, read-out: 50% inhibitory concentration
  IC50: 0.023 µg/mL (≈ 0.0505 µM)
Escherichia coli; alone, K12 PIP 55, read-out: 50% inhibitory concentration
  IC50: 0.023 µg/mL (≈ 0.0505 µM)
Escherichia coli; alone, K12 PIP 111, read-out: 50% inhibitory concentration
  IC50: 0.023 µg/mL (≈ 0.0505 µM)
Escherichia coli; alone, SOL, read-out: 50% inhibitory concentration
  IC50: 0.18 µg/mL (≈ 0.395 µM)
Escherichia coli; in the presence of LiF at 1 mg/l, K12 J53, read-out: 50% inhibitory concentration
  IC50: 0.01 µg/mL
Escherichia coli; in the presence of LiF at 1 mg/l, K12 PIP 55, read-out: 50% inhibitory concentration
  IC50: 0.023 µg/mL
Escherichia coli; in the presence of LiF at 1 mg/l, K12 PIP 111, read-out: 50% inhibitory concentration
  IC50: 0.023 µg/mL
Proteus morganii
  IC50: 0.01 µg/mL (≈ 0.022 µM)
Enterobacter; alone, P49, read-out: 50% inhibitory concentration
  IC50: 27.2 µg/mL (≈ 59.7 µM)
Enterobacter; alone, T45, read-out: 50% inhibitory concentration
  IC50: 0.05 µg/mL (≈ 0.11 µM)
Enterobacter; in the presence of LiF at 1 mg/l, P49, read-out: 50% inhibitory concentration
  IC50: 23.2 µg/mL
Enterobacter; in the presence of LiF at 1 mg/l, T45, read-out: 50% inhibitory concentration
  IC50: 0.023 µg/mL
Serratia; alone, 1123, read-out: 50% inhibitory concentration
  IC50: 0.076 µg/mL (≈ 0.167 µM)
Serratia; alone, MO1117, read-out: 50% inhibitory concentration
  IC50: 0.3 µg/mL (≈ 0.659 µM)
Serratia; in the presence of LiF at 1 mg/l, 1123, read-out: 50% inhibitory concentration
  IC50: 0.076 µg/mL
Serratia; in the presence of LiF at 1 mg/l, MO1117, read-out: 50% inhibitory concentration
  IC50: 0.3 µg/mL
